Tests used:
[1] = tested on: treatment-naive, locally advanced or metastatic (stage IIIB-IVB) NSCLC; test: B-F1RST phase II trial (NCT02848651) interim analysis: efficacy of first-line atezolizumab by bTMB subgroup; type: in vivo, human
Source text: (§1) The B-F1 RST (Clinical Trial ID No.: NCT02848651) patient population being evaluated for bTMB score consists of approximately 150 patients at 20 to 25 study sites (N=153). Patients are eligible for enrollment in the B-F1 RST study if they have treatment-naïve, locally advanced or metastatic (e.g., stage IIIB-IVB) NSCLC; measurable disease, as defined by RECIST v1.1; and an ECOG performance status of 0 or 1. Exclusion criteria include sensitizing EGFR mutations or ALK rearrangements; active brain metastases requiring treatment; leptomeningeal disease; other malignancies within 5 years of enrollment; HBV, HCV, or HIV infection; or history of autoimmune disorder. Participants are divided into cohorts based on bTMB score and receive atezolizumab at a dose of 1200 mg intravenously every three weeks. All patients undergo tumor assessment at baseline and every 6 weeks for the first 12 months following cycle 1, day 1, and then every 9 weeks therafter. Treatment with atezolizumab can be continued as long as participants were experiencing clinical benefit, i.e., in the absence of unacceptable toxicity or symptomatic deterioration attributed to disease progression. Tumor assessments continue until disease progression per RECIST v1.1 or loss of clinical benefit (investigator assessed), consent withdrawal, study discontinuation, study completion, or death. Mandatory blood samples are taken at baseline, during therapy, and at progression to evaluate changes in exploratory biomarkers. The interim analysis was prespecified to occur at 6 months after 50% of the patients have been enrolled, with a prespecified bTMB score of ≥16. The co-primary endpoints are the clinical efficacy of atezolizumab (as evaluated by investigator-assessed ORR per RECIST v1.1) and the relationship between bTMB and PFS benefit (as evaluated by investigator-assessed PFS per RECIST v1.1). The secondary objectives are safety and assessment of efficacy by investigator-assessed duration of response (DOR) and OS.
(§2) Of 78 treated patients in the interim analysis population (IAP) from the B-F1 RST study, 58 had adequate blood samples with sufficient detection of circulating tumor DNA (MSAF≥1%) and comprised the biomarker-evaluable population (BEP). One patient of the IAP was never treated and therefore not safety- or efficacy-evaluable. A bTMB score of 16 (prevalence, 19% [11/58]) was prespecified to evaluate clinical efficacy in the BEP (bTMB high, ≥16; bTMB low, <16). Statistical tests were 2-sided at a 0.1 level and 90% confidence interval.

[2] = tested on: treatment-naive, locally advanced or metastatic (stage IIIB-IVB) NSCLC; test: B-F1RST phase II trial (NCT02848651) interim analysis: safety (adverse events) of atezolizumab; type: in vivo, human
Source text: as §1, §2

[3] = bTMB cut-off score 12, BEP n = 58
[4] = bTMB cut-off score 14, BEP n = 58
[5] = bTMB cut-off score 16, BEP n = 58
[6] = bTMB cut-off score 20, BEP n = 58

atezolizumab was tested, and the disease control rate ([1]; B-F1RST interim analysis, BEP (n=58)) was 25.9%, the ORR ([1]; B-F1RST interim analysis, BEP (n=58), RECIST v1.1) was 12.1% and the “PFS HR (90% CI)” value ([1]; B-F1RST interim analysis, bTMB high (≥16) vs low (<16)) was 0.51. For the same substance, the “median PFS” value ([1]; B-F1RST interim analysis, bTMB high (≥16), minimum follow-up of 6 months) was 9.5 months, the ORR ([1]; B-F1RST interim analysis, bTMB high (≥16), n=11) was 36.4% and the “ORR odds ratio (90% CI)” value ([1]; B-F1RST interim analysis, bTMB high versus low groups) was 8.38. For the same substance, the “median PFS” value ([1]; B-F1RST interim analysis, bTMB low (<16), minimum follow-up of 6 months) was 2.8 months, the ORR ([1]; B-F1RST interim analysis, bTMB low (<16), n=47) was 6.4% and the “ORR per RECIST v.1.1” value ([1]; BEP (n = 58)) was 12.1%. For the same substance, the “PD per RECIST v.1.1” value ([1]; BEP (n = 58)) was 37.9%, the “PR per RECIST v.1.1” value ([1]; BEP (n = 58)) was 12.1% and the “ORR per RECIST v.1.1” value ([1]; IAP (n = 78)) was 15.4%. The “PD per RECIST v.1.1” value ([1]; IAP (n = 78)) was 37.2%, the “PR per RECIST v.1.1” value ([1]; IAP (n = 78)) was 15.4% and the “PFS Median, bTMB High” value [1, 3] was 3.0 (22) months. For the same substance, the “PFS Median, bTMB Low” value [1, 3] was 3.2 (36) months, the “PFS Median, bTMB High” value [1, 4] was 3.4 (14) months and the “PFS Median, bTMB Low” value [1, 4] was 3.2 (44) months. The “PFS Median, bTMB High” value [1, 5] was 9.5 (11) months, the “PFS Median, bTMB Low” value [1, 5] was 2.8 (47) months and the “PFS Median, bTMB High” value [1, 6] was 9.5 (8) months. For the same substance, the “PFS Median, bTMB Low” value [1, 6] was 2.7 (50) months, the “ORR per RECIST v.1.1” value ([1]; bTMB high (n = 11)) was 36.4% and the “PD per RECIST v.1.1” value ([1]; bTMB high (n = 11)) was 36.4%. For the same substance, the “PR per RECIST v.1.1” value ([1]; bTMB high (n = 11)) was 36.4%, the “PFS HR” value ([1]; bTMB high (≥16) vs bTMB low (<16), Table 20) was 0.51 and the “median PFS” value ([1]; bTMB high (≥16), n = 11, BEP, first-line atezolizumab, minimum follow-up 6 months) was 9.5 mo. The “PFS HR” value ([1]; bTMB high vs low at cut-off score 12, BEP n = 58) was 0.95, the “PFS HR” value ([1]; bTMB high vs low at cut-off score 14, BEP n = 58) was 0.73 and the “PFS HR” value ([1]; bTMB high vs low at cut-off score 16, BEP n = 58, Table 21) was 0.49. The “PFS HR” value ([1]; bTMB high vs low at cut-off score 20, BEP n = 58) was 0.23, the “median PFS” value ([1]; bTMB low (<16), n = 47, BEP, first-line atezolizumab, minimum follow-up 6 months) was 2.8 mo and the “ORR per RECIST v.1.1” value ([1]; bTMB low (n = 47)) was 6.4%. For the same substance, the “PD per RECIST v.1.1” value ([1]; bTMB low (n = 47)) was 38.3%, the “PR per RECIST v.1.1” value ([1]; bTMB low (n = 47)) was 6.4% and the “Treatment-related Grade 5 AEs” value ([2]; Patients in IAP (n = 78)) was “^bNo treatment-related Grade 5 AEs were reported”. The “Grade 5 AEs, any cause” value ([2]; Patients in IAP (n = 78), reported as death, cardiac arrest, pulmonary embolism (n = 1 each)) was 3 (3.8%) n (%), the “AE of special interest: Adrenal insufficiency” value ([2]; in vivo) was 1 (1.3%) n (%) and the “AEs leading to discontinuation, patients” value ([2]; in vivo) was 15.4%. For the same substance, the “AEs leading to treatment discontinuation” value ([2]; in vivo) was 12 (15.4%) n (%), the “AEs, any cause” value ([2]; in vivo) was 78 (100.0%) n (%) and the “Grade 3-4 AEs, any cause” value ([2]; in vivo) was 40 (51.3%) n (%). The “SAEs, any cause” value ([2]; in vivo) was 35 (44.9%) n (%), the “Treatment-related AEs” value ([2]; in vivo) was 59 (75.6%) n (%) and the “Treatment-related Grade 3-4 AEs” value ([2]; in vivo) was 15 (19.2%) n (%). For the same substance, the “Treatment-related SAEs” value ([2]; in vivo) was 12 (15.4%) n (%), the “Treatment-related serious AEs, patients” value ([2]; in vivo) was 14.1% and the tolerability ([2]; in vivo) was “well tolerated”. The “treatment-related grade 3/4 AEs, patients” value ([2]; in vivo) was 16.7%.

Reference: patent US11674962B2, “Therapeutic and diagnostic methods for cancer” (Genentech, Inc., priority 2017, dated 2023)
